Experimental data published in patent US20020026053A1, “Novel 3-(substituted) -2- indolinones compounds and use thereof as inhibitors of protein kinase activity” (priority 1997, published 2002).

tested on: FLK-1 receptor; experiment: FLK-1 Assay (cellular/catalytic ELISA, VEGF-stimulated phosphotyrosine); format: cell-based; parameters: concentration or dose not given beside the values
Description: The cellular/catalytic assays described herein are performed in an ELISA format. The general procedure is as follows: a compound is introduced to cells expressing the test kinase, either naturally or recombinantly, for a selected period of time after which, if the test kinase is a receptor, a ligand known to activate the receptor is added. The cells are lysed and the lysate is transferred to the wells of an ELISA plate previously coated with a specific antibody recognizing the substrate of the enzymatic phosphorylation reaction. Non-substrate components of the cell lysate are washed away and the amount of phosphorylation on the substrate is detected with an antibody specifically recognizing phosphotyrosine compared with control cells that were not contacted with a test compound.
An ELISA assay is conducted to measure the kinase activity of the FLK-1 receptor and more specifically, the inhibition or activation of TK activity on the FLK-1 receptor. Specifically, the following assay can be conducted to measure kinase activity of the FLK-1 receptor in cells genetically engineered to express Flk-1.
a. Corning 96-well ELISA plates (Corning Catalog No. 25805-96);
b. Cappel goat anti-rabbit IgG (catalog no. 55641);
c. PBS (Gibco Catalog No. 450-1300EB);
d. TBSW Buffer (50 mM Tris (pH 7.2), 150 mM NaCl and 0.1% Tween-20);
e. Ethanolamine stock (10% ethanolamine (pH 7.0), stored at 4° C.);
f. HNTG buffer (20 mM HEPES buffer (pH 7.5), 150 mM NaCl, 0.2% Triton X-100, and 10% glycerol);
g. EDTA (0.5 M (pH 7.0) as a 100× stock);
h. Sodium orthovanadate (0.5 M as a 100× stock);
i. Sodium pyrophosphate (0.2 M as a 100× stock);
j. NUNC 96 well V bottom polypropylene plates (Applied Scientific Catalog No. AS-72092);
k. NIH3T3 C7#3 Cells (FLK-1 expressing cells);
l. DMEM with 1× high glucose L-Glutamine (catalog No. 11965-050);
n. L-glutamine, Gibco (catalog no. 25030-016);
o. VEGF, PeproTech, Inc. (catalog no. 100-20)(kept as 1 μg/100 μl stock in Milli-Q dH2O and stored at −20° C.;
p. Affinity purified anti-FLK-1 antiserum;
q. UB40 monoclonal antibody specific for phosphotyrosine (see, Fendley, et al., 1990, Cancer Research 50:1550-1558);
r. EIA grade Goat anti-mouse IgG-POD (BioRad catalog no. 172-1011);
s. 2,2-azino-bis(3-ethylbenz-thiazoline-6-sulfonic acid (ABTS) solution (100 mM citric acid (anhydrous), 250 mM Na2HPO4 (pH 4.0), 0.5 mg/ml ABTS (Sigma catalog no. A-1888)), solution should be stored in dark at 4° C. until ready for use;
t. H2O2 (30% solution) (Fisher catalog no. H325);
u. ABTS/ H2O2 (15 ml ABTS solution, 2 μl H2O2) prepared 5 minutes before use and left at room temperature;
v. 0.2 M HCl stock in H2O;
w. dimethylsulfoxide (100%) (Sigma Catalog No. D-8418); and
y. Trypsin-EDTA (Gibco BRL Catalog No. 25200-049).
1. Coat Corning 96-well ELISA plates with 1.0 μg per well Cappel Anti-rabbit IgG antibody in 0.1M Na2CO3 pH 9.6. Bring final volume to 150 μl per well. Coat plates overnight at 4° C. Plates can be kept up to two weeks when stored at 4° C.
2. Grow cells in Growth media (DMEM, supplemented with 2.0 mM L-Glutamine, 10% FBS) in suitable culture dishes until confluent at 37° C., 5% CO2.
3. Harvest cells by trypsinization and seed in Corning 25850 polystyrene 96-well round bottom cell plates, 25,000 cells/well in 200 μl of growth media.
4. Grow cells at least one day at 37° C., 5% CO2.
5. Wash cells with D-PBS 1×.
6. Add 200 μl/well of starvation media (DMEM, 2.0 mM 1-Glutamine, 0.1% FBS). Incubate overnight at 37° C., 5% CO2.
7. Dilute Compounds 1:20 in polypropylene 96 well plates using starvation media. Dilute dimethylsulfoxide 1:20 for use in control wells.
8. Remove starvation media from 96 well cell culture plates and add 162 μl of fresh starvation media to each well.
9. Add 18 μl of 1:20 diluted compound dilution (from step 7) to each well plus the 1:20 dimethylsulfoxide dilution to the control wells (+/− VEGF), for a final dilution of 1:200 after cell stimulation. Final dimethylsulfoxide is 0.5%. Incubate the plate at 37° C., 5% CO2 for two hours.
10. […]

Going from `Cc1c(Br)cc(Br)c2c1C(=Cc1coc3ccc([N+](=O)[O-])cc3c1=O)C(=O)N2` [10731/H07] to `Cc1c(Br)cc(Br)c2c1C(=Cc1cc([N+](=O)[O-])ccc1O)C(=O)N2` [10733/H10], the “Flk Kinase % Inhibition (P.110)” value falls from 74.5% to 12.6%.

Compared with `Cc1c(Br)cc(Br)c2c1C(=Cc1c[nH]c(=O)[nH]c1=O)C(=O)N2` [10731/H08], `COc1ccc2[nH]cc(C=C3C(=O)Nc4c(Br)cc(Br)c(C)c43)c2c1` [10731/H09] is lower in “Flk Kinase % Inhibition (P.110)” value: 31.4% for the first, 15.8% for the second.

First: Cc1c(Br)cc(Br)c2c1C(=C1C(=O)N(C)c3ccccc31)C(=O)N2 [10731/H10]
Second: Cc1cc(C=C2C(=O)Nc3c(Br)cc(Br)c(C)c32)cc(C)c1OCc1ccccc1 [10733/H07]
The “Flk Kinase % Inhibition (P.110)” value of the first is higher: 25.9% for the first, 7.6% for the second.

Going from `Cc1c(Br)cc(Br)c2c1C(=CC(c1cccs1)C(F)(F)F)C(=O)N2` (stereo not drawn) [10732/H02] to `Cc1c(Br)cc(Br)c2c1C(=Cc1cc(Br)ccc1O)C(=O)N2` [10733/H09], the “Flk Kinase % Inhibition (P.110)” value rises from 9.1% to 44.8%.

Compared with `COc1c(C(C)C)cc(C=C2C(=O)Nc3c(Br)cc(Br)c(C)c32)cc1C(C)C` [10732/H03], `Cc1c(Br)cc(Br)c2c1C(=Cc1cc(C(C)C)c(Oc3ccccc3)c(C(C)C)c1)C(=O)N2` [10732/H04] is lower in “Flk Kinase % Inhibition (P.110)” value: 8.4% for the first, 4.9% for the second.

Compared with `COc1ccc(C=C2C(=O)Nc3c(Br)cc(Br)c(C)c32)cc1C(C)(C)C` [10732/H05], `COc1c(I)cc(C=C2C(=O)Nc3c(Br)cc(Br)c(C)c32)cc1C(C)(C)C` [10732/H11] is lower in “Flk Kinase % Inhibition (P.110)” value: 12.8% for the first, 6.4% for the second.

First: Cc1c(Br)cc(Br)c2c1C(=Cc1ccc(OCc3ccccc3)c(C(C)(C)C)c1)C(=O)N2 [10732/H06]
Second: Cc1c(Br)cc(Br)c2c1C(=Cc1cc(Br)c(OCc3ccccc3)c(C(C)(C)C)c1)C(=O)N2 [10732/H08]
The “Flk Kinase % Inhibition (P.110)” value of the first is higher: 22.6% for the first, 12.6% for the second.

Going from `COc1c(Br)cc(C=C2C(=O)Nc3c(Br)cc(Br)c(C)c32)cc1C(C)(C)C` [10732/H07] to `COc1c(Cl)cc(C=C2C(=O)Nc3c(Br)cc(Br)c(C)c32)cc1C(C)(C)C` [10732/H09], the “Flk Kinase % Inhibition (P.110)” value falls from 9.7% to 5.4%.

Going from `Cc1c(Br)cc(Br)c2c1C(=Cc1cc(Cl)c(OCc3ccccc3)c(C(C)(C)C)c1)C(=O)N2` [10732/H10] to `Cc1c(Br)cc(Br)c2c1C(=Cc1cc(I)c(OCc3ccccc3)c(C(C)(C)C)c1)C(=O)N2` [10733/H02], the “Flk Kinase % Inhibition (P.110)” value falls from 3.3% to −2.0%.

Going from `COc1c([N+](=O)[O-])cc(C=C2C(=O)Nc3c(Br)cc(Br)c(C)c32)cc1C(C)(C)C` [10733/H03] to `COc1c(C(C)(C)C)cc(C=C2C(=O)Nc3c(Br)cc(Br)c(C)c32)cc1C(C)(C)C` [10733/H04], the “Flk Kinase % Inhibition (P.110)” value falls from 31.2% to −8.5%.

Compared with `Cc1c(Br)cc(Br)c2c1C(=Cc1cc(C(C)(C)C)c(OCc3ccccc3)c(C(C)(C)C)c1)C(=O)N2` [10733/H05], `COc1c(C)cc(C=C2C(=O)Nc3c(Br)cc(Br)c(C)c32)cc1C` [10733/H06] is higher in “Flk Kinase % Inhibition (P.110)” value: 17.7% for the first, 30.0% for the second.

First: COc1cc(Br)cc(C=C2C(=O)Nc3c(Br)cc(Br)c(C)c32)c1O [10733/H08]
Second: COc1c(O)ccc(C=C2C(=O)Nc3c(Br)cc(Br)c(C)c32)c1[N+](=O)[O-] [10733/H11]
The “Flk Kinase % Inhibition (P.110)” value of the first is lower: 4.8% for the first, 29.1% for the second.
